IC50 data for 16 compounds are collected here from US20230092890A1, “1, 3, 4-Oxadiazole derivative compounds as histone deacetylase 6 inhibitor, and the pharmaceutical composition comprising the same” (Chong Kun Dang Pharmaceutical Corp., priority 2019, published 2023).

Assay [1] addresses T1, HDAC6 human recombinant (Homo sapiens, UniProt Q9UBN7).
T1 construct: purchased Calbiochem 382180
T1 sequence (Q9UBN7 1-1215): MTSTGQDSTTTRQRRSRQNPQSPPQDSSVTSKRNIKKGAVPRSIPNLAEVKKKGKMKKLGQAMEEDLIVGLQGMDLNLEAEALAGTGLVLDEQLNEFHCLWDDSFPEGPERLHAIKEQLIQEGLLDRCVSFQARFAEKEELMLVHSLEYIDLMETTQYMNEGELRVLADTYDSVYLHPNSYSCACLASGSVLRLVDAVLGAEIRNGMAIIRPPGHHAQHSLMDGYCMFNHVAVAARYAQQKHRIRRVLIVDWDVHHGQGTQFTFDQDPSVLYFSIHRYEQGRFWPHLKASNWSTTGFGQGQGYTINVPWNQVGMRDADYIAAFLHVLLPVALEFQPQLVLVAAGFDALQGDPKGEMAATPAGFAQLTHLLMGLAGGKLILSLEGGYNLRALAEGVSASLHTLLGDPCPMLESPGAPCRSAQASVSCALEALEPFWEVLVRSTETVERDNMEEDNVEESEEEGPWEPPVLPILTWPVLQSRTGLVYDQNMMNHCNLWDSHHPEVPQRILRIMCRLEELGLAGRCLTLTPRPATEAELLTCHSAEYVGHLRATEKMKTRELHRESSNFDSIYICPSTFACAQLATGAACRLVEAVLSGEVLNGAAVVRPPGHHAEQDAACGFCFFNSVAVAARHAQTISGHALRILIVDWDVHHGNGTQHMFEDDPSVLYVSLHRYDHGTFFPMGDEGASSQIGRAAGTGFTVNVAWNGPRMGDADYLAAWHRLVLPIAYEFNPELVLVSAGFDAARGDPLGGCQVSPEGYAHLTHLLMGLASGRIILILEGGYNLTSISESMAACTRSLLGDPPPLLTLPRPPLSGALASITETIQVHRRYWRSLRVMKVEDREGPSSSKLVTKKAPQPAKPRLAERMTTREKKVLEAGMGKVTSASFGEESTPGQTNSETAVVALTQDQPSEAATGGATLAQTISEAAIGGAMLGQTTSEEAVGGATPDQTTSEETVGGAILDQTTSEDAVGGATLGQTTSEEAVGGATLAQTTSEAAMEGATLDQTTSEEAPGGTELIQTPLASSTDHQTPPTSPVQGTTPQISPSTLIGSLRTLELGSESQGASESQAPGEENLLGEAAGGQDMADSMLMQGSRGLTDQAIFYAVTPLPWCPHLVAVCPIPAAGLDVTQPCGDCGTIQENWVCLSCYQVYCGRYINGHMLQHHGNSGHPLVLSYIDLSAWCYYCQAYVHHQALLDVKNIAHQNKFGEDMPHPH
As to the kind of experiment: HDAC enzyme activity inhibition (in vitro), HDAC6 assay. It is filed as biochemical. The settings on record: samples at 0.1, 1, 10, 100 and 1000 nM; 37° C. 60 minutes; fluorescence Ex 390, Em 460; read-out: HDAC6 IC50. The method, boiled down: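 Fluorescence (Ex 390, Em 460) read after a 37° C, 60 min enzyme reaction and a further 30 min developer step at 37° C. Uses recombinant human HDAC6; HDAC1 arm dosed at 100, 1000, 10000 nM.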

Assay [2] addresses T2, HDAC1 (Homo sapiens, UniProt Q13547).
T2 construct: purchased Enzolifesciences BML-AK511
Nature of the assay: HDAC enzyme activity inhibition (in vitro), HDAC1 Fluorimetric Drug Discovery Assay Kit. It is filed as biochemical. The settings on record: samples at 100, 1000 and 10000 nM; 37° C. 60 minutes; fluorescence Ex 390, Em 460; read-out: HDAC1 IC50. The method, boiled down:
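Each sample reacted with enzyme for 60 min at 37° C before a 30-min developer step at the same temperature. HDAC1 doses spanned 100 to 10000 nM. Fluorescent signal was read at Ex 390/Em 460.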

T2 sequence (Q13547 whole entry): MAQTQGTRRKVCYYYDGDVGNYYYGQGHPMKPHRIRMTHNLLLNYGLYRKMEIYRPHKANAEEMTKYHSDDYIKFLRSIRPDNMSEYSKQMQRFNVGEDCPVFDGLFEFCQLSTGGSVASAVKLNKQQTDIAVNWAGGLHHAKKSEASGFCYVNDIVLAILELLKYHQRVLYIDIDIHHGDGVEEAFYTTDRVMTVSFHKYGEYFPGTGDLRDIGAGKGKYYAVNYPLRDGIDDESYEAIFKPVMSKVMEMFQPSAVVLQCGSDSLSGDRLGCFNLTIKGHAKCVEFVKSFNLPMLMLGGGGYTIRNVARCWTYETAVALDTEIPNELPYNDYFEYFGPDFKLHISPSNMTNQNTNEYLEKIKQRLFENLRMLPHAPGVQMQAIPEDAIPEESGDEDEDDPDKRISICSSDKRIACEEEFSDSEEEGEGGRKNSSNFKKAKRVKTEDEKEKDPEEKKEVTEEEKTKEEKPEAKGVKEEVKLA

On to `CC(C)N1CCN(c2ccc(-c3cc4oc(=O)n(Cc5ccc(-c6nnc(C(F)F)o6)cn5)c4cc3F)cn2)CC1` [Compound 349, 3-((5-(5-(difluoromethyl)-1,3,4-oxadiazole-2-yl)pyridine-2-yl)methyl)-5-fluoro-6-(6-(4-isopropylpiperazine-1-yl)pyridine-3-yl)benzo[d]oxazole-2(3H)-one], for which the figures for the IC50 in assay [1] and in assay [2] were 55 nM and more than 10 µM, respectively.

For the compound `O=c1oc2cc(-c3ccc(N4CCN(C5COC5)CC4)nc3)c(F)cc2n1Cc1ccc(-c2nnc(C(F)F)o2)cn1` [Compound 350, 3-((5-(5-(difluoromethyl)-1,3,4-oxadiazole-2-yl)pyridine-2-yl)methyl)-5-fluoro-6-(6-(4-(oxetan-3-yl)piperazine-1-yl)pyridine-3-yl)benzo[d]oxazole-2(3H)-one], the IC50 – broadly, the point on the concentration scale where inhibition reaches its midpoint – was 33 nM in assay [1] and more than 10 µM in assay [2].

Consider `O=c1oc2cc(-c3ccc(N4CCN(CC(F)(F)F)CC4)nc3)c(F)cc2n1Cc1ccc(-c2nnc(C(F)F)o2)cn1` [Compound 351, 3-((5-(5-(difluoromethyl)-1,3,4-oxadiazole-2-yl)pyridine-2-yl)methyl)-5-fluoro-6-(6-(4-(2,2,2-trifluoroethyl)piperazine-1-yl)pyridine-3-yl)benzo[d]oxazole-2(3H)-one], for which the IC50 in assay [1] is 151 nM; in assay [2], more than 10 µM.

In the case of `CC(C)(C)OC(=O)N1CCC(n2cc(-c3ccc4c(c3)sc(=O)n4Cc3ccc(-c4nnc(C(F)F)o4)cn3)cn2)CC1` [Compound 352, tert-butyl 4-(4-(3-((5-(5-(difluoromethyl)-1,3,4-oxadiazole-2-yl)pyridine-2-yl)methyl)-2-oxo-2,3-dihydrobenzo[d]thiazole-6-yl)-1H-pyrazole-1-yl)piperidine-1-carboxylate], the IC50 is 170 nM in assay [1] and more than 10 µM in assay [2].

Consider `CN1CCC(n2cc(-c3ccc4c(c3)sc(=O)n4Cc3ccc(-c4nnc(C(F)F)o4)cn3)cn2)CC1` [Compound 353, 3-((5-(5-(difluoromethyl)-1,3,4-oxadiazole-2-yl)pyridine-2-yl)methyl)-6-(1-(1-methylpiperidine-4-yl)-1H-pyrazole-4-yl)benzo[d]thiazole-2(3H)-one], for which the results for the IC50 in assay [1] and in assay [2] were 19 nM and more than 10 µM, respectively.

As for `CC(C)N1CCC(n2cc(-c3ccc4c(c3)sc(=O)n4Cc3ccc(-c4nnc(C(F)F)o4)cn3)cn2)CC1` [Compound 354, 3-((5-(5-(difluoromethyl)-1,3,4-oxadiazole-2-yl)pyridine-2-yl)methyl)-6-(1-(1-isopropylpiperidine-4-yl)-1H-pyrazole-4-yl)benzo[d]thiazole-2(3H)-one], the IC50 was 16 nM in assay [1] and more than 10 µM in assay [2].

As to `O=c1sc2cc(-c3cnn(C4CCN(C5COC5)CC4)c3)ccc2n1Cc1ccc(-c2nnc(C(F)F)o2)cn1` [Compound 355, 3-((5-(5-(difluoromethyl)-1,3,4-oxadiazole-2-yl)pyridine-2-yl)methyl)-6-(1-(1-(oxetan-3-yl)piperidine-4-yl)-1H-pyrazole-4-yl)benzo[d]thiazole-2(3H)-on], the IC50 in assay [1] was 23 nM; in assay [2], more than 10 µM.

For `O=c1sc2cc(-c3cnn(C4CCN(CC(F)(F)F)CC4)c3)ccc2n1Cc1ccc(-c2nnc(C(F)F)o2)cn1` [Compound 356, 3-((5-(5-(difluoromethyl)-1,3,4-oxadiazole-2-yl)pyridine-2-yl)methyl)-6-(1-(1-(2,2,2-trifluoroethyl)piperidine-4-yl)-1H-pyrazole-4-yl)benzo[d]thiazole-2(3H)-one], the half-maximal inhibitory concentration (IC50) is 84 nM in assay [1] and more than 10 µM in assay [2].

For the compound `O=c1sc2cc(-c3cnn(C4CCN(CC5(F)CC5)CC4)c3)ccc2n1Cc1ccc(-c2nnc(C(F)F)o2)cn1` [Compound 357, 3-((5-(5-(difluoromethyl)-1,3,4-oxadiazole-2-yl)pyridine-2-yl)methyl)-6-(1-(1-((1-fluorocyclopropyl)methyl)piperidine-4-yl)-1H-pyrazole-4-yl)benzo[d]thiazole-2(3H)-one], the IC50 in assay [1] was 42 nM; in assay [2] it was more than 10 µM.

Take `CC(C)(C)OC(=O)N1CCC(n2cc(-c3cc4oc(=O)n(Cc5ccc(-c6nnc(C(F)F)o6)cn5)c4cc3F)cn2)CC1` [Compound 358, tert-butyl 4-(4-(3-((5-(5-(difluoromethyl)-1,3,4-oxadiazole-2-yl)pyridine-2-yl)methyl)-5-fluoro-2-oxo-2,3-dihydrobenzo[d]oxazole-6-yl)-1H-pyrazole-1-yl)piperidine-1-carboxylate]: the IC50 in assay [1] is 130 nM; in assay [2] it was more than 10 µM.

On to `O=c1oc2cc(-c3cnn(C4CCNCC4)c3)c(F)cc2n1Cc1ccc(-c2nnc(C(F)F)o2)cn1` [Compound 359, 3-((5-(5-(difluoromethyl)-1,3,4-oxadiazole-2-yl)pyridine-2-yl)methyl)-5-fluoro-6-(1-(piperidine-4-yl)-1H-pyrazole-4-yl)benzo[d]oxazole-2(3H)-one], for which the IC50 in assay [1] is 33 nM; in assay [2], more than 10 µM.

Take `CN1CCC(n2cc(-c3cc4oc(=O)n(Cc5ccc(-c6nnc(C(F)F)o6)cn5)c4cc3F)cn2)CC1` [Compound 360, 3-((5-(5-(difluoromethyl)-1,3,4-oxadiazole-2-yl)pyridine-2-yl)methyl)-5-fluoro-6-(1-(1-methylpiperidine-4-yl)-1H-pyrazole-4-yl)benzo[d]oxazole-2(3H)-one]: the IC50 in assay [1] was 27 nM; in assay [2] it was more than 10 µM.

Regarding `CC(C)N1CCC(n2cc(-c3cc4oc(=O)n(Cc5ccc(-c6nnc(C(F)F)o6)cn5)c4cc3F)cn2)CC1` [Compound 361, 3-((5-(5-(difluoromethyl)-1,3,4-oxadiazole-2-yl)pyridine-2-yl)methyl)-5-fluoro-6-(1-(1-isopropylpiperidine-4-yl)-1H-pyrazole-4-yl)benzo[d]oxazole-2(3H)-one], the values for the IC50 in assay [1] and in assay [2] were 23 nM and more than 10 µM, respectively.

For `O=c1oc2cc(-c3cnn(C4CCN(C5COC5)CC4)c3)c(F)cc2n1Cc1ccc(-c2nnc(C(F)F)o2)cn1` [Compound 362, 3-((5-(5-(difluoromethyl)-1,3,4-oxadiazole-2-yl)pyridine-2-yl)methyl)-5-fluoro-6-(1-(1-(oxetan-3-yl)piperidine-4-yl)-1H-pyrazole-4-yl)benzo[d]oxazole-2(3H)-one], the IC50 in assay [1] was 31 nM; in assay [2], more than 10 µM.

As for `O=c1oc2cc(-c3cnn(C4CCN(CC(F)(F)F)CC4)c3)c(F)cc2n1Cc1ccc(-c2nnc(C(F)F)o2)cn1` [Compound 363, 3-((5-(5-(difluoromethyl)-1,3,4-oxadiazole-2-yl)pyridine-2-yl)methyl)-5-fluoro-6-(1-(1-(2,2,2-trifluoroethyl)piperidine-4-yl)-1H-pyrazole-4-yl)benzo[d]oxazole-2(3H)-one], the IC50 in assay [1] is 75 nM; in assay [2], more than 10 µM.

Regarding `CN1CCN(c2cc(-c3cc4oc(=O)n(Cc5ccc(-c6nnc(C(F)F)o6)cn5)c4cc3F)ccn2)CC1` [Compound 364, 3-((5-(5-(difluoromethyl)-1,3,4-oxadiazole-2-yl)pyridine-2-yl)methyl)-5-fluoro-6-(2-(4-methylpiperazine-1-yl)pyridine-4-yl)benzo[d]oxazole-2(3H)-one], the results for the IC50 in assay [1] and in assay [2] were 26 nM and more than 10 µM, respectively.
